Reference: publication PMC5080649 (CPT: Pharmacometrics & Systems Pharmacology, 2016)
Values after ≈ are worked out from the molar mass of the structure shown. Like-named read-outs stand apart in the source and are kept apart here. Values belong to the compound of their own block, whether it stands above or below them.

Experiments:
[1] = for CL renal: male, human, in vivo, GCC-4401C, plasma and urine PK modeling analysis from the SAD study
[2] = system: activated partial thromboplastin time; test: Activated partial thromboplastin time; type: in vivo, human; settings: for EC50: Homo sapiens
factor X = factor X (Homo sapiens, UniProt P00742); test: Factor X chromogenic activity assay; type: in vivo; settings: for comparable dose of rivaroxaban in FXCAA: Monte-Carlo simulation
factor X, sequence (P00742 235-488 limits assumed): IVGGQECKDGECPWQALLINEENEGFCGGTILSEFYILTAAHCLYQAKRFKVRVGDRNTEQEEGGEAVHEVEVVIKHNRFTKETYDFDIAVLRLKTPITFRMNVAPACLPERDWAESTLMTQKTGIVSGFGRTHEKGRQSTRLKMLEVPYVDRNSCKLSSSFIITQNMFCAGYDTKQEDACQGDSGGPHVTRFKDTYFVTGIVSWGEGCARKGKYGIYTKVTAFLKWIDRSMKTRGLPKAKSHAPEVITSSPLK
factor X, sequence (P00742 41-179 limits assumed): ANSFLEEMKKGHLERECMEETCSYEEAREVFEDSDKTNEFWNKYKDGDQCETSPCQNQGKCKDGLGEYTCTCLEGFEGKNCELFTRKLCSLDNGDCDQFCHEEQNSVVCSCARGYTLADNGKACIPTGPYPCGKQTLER

prothrombin time = test: Prothrombin time; type: in vivo, human; settings: for EC50: Homo sapiens; for comparable dose of rivaroxaban in PT: Monte-Carlo simulation
coagulation factor X = coagulation factor X (Homo sapiens, UniProt P00742); test: Coagulation factor X; type: in vivo
coagulation factor X, sequence (P00742 235-488 limits assumed): as the sequence (P00742 235-488 limits assumed) above
coagulation factor X, sequence (P00742 41-179 limits assumed): as the sequence (P00742 41-179 limits assumed) above

factor Xa [3] = target: factor Xa (Bos taurus, UniProt P00743); test: LMWH assay; type: in vivo, human; settings: GCC4401C, SAD study
factor Xa [4] = target: factor Xa (Homo sapiens, UniProt P00742); test: Antifactor Xa; type: in vivo
factor Xa (Homo sapiens, UniProt P00742), sequence (P00742 235-488 limits assumed): as the sequence (P00742 235-488 limits assumed) above
factor Xa (Homo sapiens, UniProt P00742), sequence (P00742 41-179 limits assumed): as the sequence (P00742 41-179 limits assumed) above

antithrombin III = test: Antithrombin III; type: in vivo, human; settings: AT III activity; GCC4401C, SAD study; Linear model
[5] = oral, cited from earlier work
[6] = GCC4401C oral, fasted, SAD and S&MAD studies, final model
[7] = GCC4401C oral, fasted, SAD and S&MAD studies, variance (CV %)
[8] = GCC-4401C oral, fasted, base model
[9] = FXCAA, GCC4401C, S&MAD study, variance (CV %)
[10] = PT (INR), GCC4401C, SAD and S&MAD studies, Sigmoid Emax model
[11] = Prothrombin time (seconds), GCC4401C, Sigmoid Emax model
[12] = Coagulation factor X, GCC4401C, SAD and S&MAD studies, variance (CV %)
[13] = Coagulation factor X, GCC4401C, variance (CV %)
[14] = Antifactor Xa activity, GCC4401C, S&MAD study, Sigmoid Emax model
[15] = Antifactor Xa activity, GCC4401C, S&MAD study, variance (CV %)
[16] = rivaroxaban 20 mg, fed, S&MAD study
[17] = rivaroxaban 20 mg, fed, S&MAD study, variance (CV %)
[18] = Activated PT (seconds), Rivaroxaban, S&MAD, Sigmoid Emax model
[19] = FXCAA, Rivaroxaban, S&MAD study, variance (CV %)
[20] = PT (INR), Rivaroxaban, S&MAD study, Simple Emax model
[21] = Coagulation factor X, Rivaroxaban, S&MAD study, Sigmoid Emax model
[22] = Coagulation factor X, Rivaroxaban, S&MAD study, variance (CV %)

ALAG1 (delay in absorption) [1, 6]: 0.20 h | D1 (duration of zero-order absorption) [1, 6]: 0.395 h | IIV + IOVALAG1 (CV, %) [1, 7]: 0.14 (38.8) | IIV + IOVD1 (CV, %) [1, 7]: 1.49 (185.4) | IIVCLNR (CV, %) [1, 7]: 0.046 (21.7) | IIVCLR (CV, %) [1, 7]: 0.052 (23.2) | IIVKa (CV, %) [1, 7]: 0.97 (128.0) | IIVVc (CV, %) [1, 7]: 0.09 (30.5) | IIVVp (CV, %) [1, 7]: 0.11 (33.8) | Θ for WT and Vc (power covariate effect of body weight on Vc) ([1]; GCC4401C, Typical Vc=Vc(75)*(WT/75)^Θ): 0.67 | Vc [1, 8]: 55.6 L | Vp [1, 8]: 25.9 L | average steady-state volume of distribution [1, 8]: 81.5 L | total clearance ([1]; GCC-4401C oral, fasted, final model): 12.0 L/h | CL renal ([1]; nonrenal clearance (CLNR)): 200 mL/min | CL renal ([1]; renal clearance (CLR)): 13.7 mL/min | EC50 [2]: 0.573 µg/mL | EC50 (factor X): 814 nM | γ (shape parameter) (factor X; FXCAA, GCC4401C, S&MAD study, Sigmoid Emax model): 0.90 | IIVEmax (CV, %) (factor X; [9]): 0.01 (11.3) | IIVγ (CV, %) (factor X; [9]): 0.06 (25.7) | Emax (factor X; Factor X chromogenic activity assay, GCC4401C, S&MAD study, Sigmoid Emax model): 99.8% | comparable dose of rivaroxaban in FXCAA (factor X; GCC-4401C 10 mg): 30 to 40 mg | comparable dose of rivaroxaban in FXCAA (factor X; GCC-4401C 20 mg): ~80 mg | EC50 (prothrombin time; read-out: EC50, SAD, PT (INR), GCC4401C, SAD study, Sigmoid Emax model): 0.426 µg/mL | EC50 (prothrombin time; read-out: EC50, SAD, Prothrombin time (seconds), GCC4401C, SAD study, Sigmoid Emax model): 0.563 µg/mL | EC50 (prothrombin time; read-out: EC50, SAD/MAD, PT (INR), GCC4401C, SAD/MAD study, Sigmoid Emax model): 1.35 µg/mL | EC50 (prothrombin time; read-out: EC50, SAD/MAD, Prothrombin time (seconds), GCC4401C, SAD/MAD study, Sigmoid Emax model): 1.45 µg/mL | EC50 (coagulation factor X): 5580 nM | Emax (coagulation factor X; Coagulation factor X, GCC4401C, SAD and S&MAD studies, Sigmoid Emax model): 81.2% | IIVEC50 (%) (coagulation factor X; [12]): 0.98 (129.4) | IIVEmax (CV, %) (coagulation factor X; [12]): 0.10 (33.1) | γSAD (shape parameter) (coagulation factor X; Coagulation factor X, GCC4401C, SAD study, Sigmoid Emax model): 1.07 | γSAD/MAD (shape parameter) (coagulation factor X; Coagulation factor X, GCC4401C, SAD/MAD study, Sigmoid Emax model): 0.60 | IIVγ (CV, %) (coagulation factor X; [13]): 0.24 (51.8) | IOVγ (CV, %) (coagulation factor X; [13]): 0.09 (30.1) | Emax (factor Xa [3]; Simple Emax model): 3.83 | IIVEC50 (CV, %) (factor Xa [3]; variance (CV %)): 0.29 (57.4) | EC50 (factor Xa [4]): 1350 nM | Emax (factor Xa [4]; [14]): 3.24 IU/mL | γ (shape parameter) (factor Xa [4]; [14]): 1.25 | IIV + IOVEC50 (%) (factor Xa [4]; [15]): 0.005 (7.2) | IIVEmax (CV, %) (factor Xa [4]; [15]): 0.04 (20.8) | IIVγ (CV, %) (factor Xa [4]; [15]): 0.02 (13.4) | comparable dose of rivaroxaban in AFX assay (factor Xa [4]; Monte-Carlo simulation, GCC-4401C 10 mg): ~20 mg | comparable dose of rivaroxaban in AFX (factor Xa [4]; Monte-Carlo simulation, GCC-4401C 20 mg): ~40 mg
SMILES: CS(=O)(=O)O.O=C(NC[C@H]1CN(c2ccc(N3CCNC=N3)cc2)C(=O)O1)c1ccc(Cl)s1 [GCC‐4401C, (S)−5‐chloro‐N‐((3‐(4‐(5,6‐dihydro‐1,2,4‐triazin‐1(4H)‐yl)phenyl)−2‐oxooxazolidin‐5‐yl)methyl)thiophene‐2‐carboxamide methanesulfonate]
Emax, SAD ([2]; Activated PT (seconds), GCC4401C, SAD study, Sigmoid Emax model): 16.9 s | Emax, SAD/MAD ([2]; Activated PT (seconds), GCC4401C, SAD/MAD study, Sigmoid Emax model): 20.4 s | γ (shape parameter) ([2]; Activated PT (seconds), GCC4401C, Sigmoid Emax model): 1.37 | comparable dose of rivaroxaban in PT (prothrombin time; GCC-4401C 10 mg): 30 to 40 mg | comparable dose of rivaroxaban in PT (prothrombin time; GCC-4401C 20 mg): ~40 mg | Emax (prothrombin time; [10]): 1.32 INR | γ (shape parameter) (prothrombin time; [10]): 1.23 | Emax (prothrombin time; [11]): 15.2 s | γ (shape parameter) (prothrombin time; [11]): 1.16 | SLOPE (antithrombin III): 0.006

D1 (duration of zero-order absorption) [1, 16]: 1.07 h | γ (shape parameter in Weibull-type absorption model) [1, 16]: 1.34 | IIVCL (%) [1, 17]: 0.015 (12.3) | IIVKa (CV, %) [1, 17]: 3.3 (503.1) | IIVVc (CV, %) [1, 17]: 0.01 (10.0) | IIVVp (CV, %) [1, 17]: 0.06 (25.7) | EC50 [2]: 0.135 µg/mL (≈ 0.31 µM) | Emax (factor X; FXCAA, Rivaroxaban, S&MAD study, Simple Emax model): 112.0% | IIVEC50 (CV, %) (factor X; [19]): 0.07 (26.9) | IOVEC50 (CV, %) (factor X; [19]): 0.01 (8.2) | EC50 (prothrombin time; [20]): 0.434 µg/mL (≈ 0.996 µM) | Emax (coagulation factor X; [21]): 42.9% | γ (shape parameter) (coagulation factor X; [21]): 0.90 | IIVEC50 (CV, %) (coagulation factor X; [22]): 0.33 (62.1) | IOVEC50 (CV, %) (coagulation factor X; [22]): 0.25 (52.9) | SLOPE (factor Xa [4]; Antifactor Xa activity, Rivaroxaban, S&MAD study, Linear model): 0.005 | IIVSLOPE (CV, %) (factor Xa [4]; Antifactor Xa activity, Rivaroxaban, S&MAD study, variance (CV %)): 0.01 (10.8)
SMILES: O=C(NC[C@H]1CN(c2ccc(N3CCOCC3=O)cc2)C(=O)O1)c1ccc(Cl)s1 [rivaroxaban, reference compound]
Emax [2, 18]: 12.4 s | γ (shape parameter) [2, 18]: 0.94 | increase of Cmax with food ([5]; >10 mg, with food vs fasting): 76% | increase of mean area under concentration time curve with food ([5]; >10 mg, with food vs fasting): 39% | bioavailability ([5]; independent of food up to 10 mg): 80–100% | Emax (prothrombin time; [20]): 0.71 INR | Emax (prothrombin time; Prothrombin time (seconds), Rivaroxaban, S&MAD study, Simple Emax model): 6.86 s
